Broadly, the IC50 is the concentration that inhibits the measured activity by half.

Data on 1 molecule can be found in publication PMC11460631, “Inhibition of transient receptor potential vanilloid 3 channels by antimalarial hydroxychloroquine alleviates TRPV3-dependent dermatitis” (The Journal of Biological Chemistry, 2024).

Each structure is given as a SMILES string.

One experiment has as its target T1, TRPV3 (Homo sapiens, UniProt Q8NET8).
T1 construct: YFP or GFP; expressed in transfected cells; host or cells: HEK293T
T1 sequence (Q8NET8 1-790): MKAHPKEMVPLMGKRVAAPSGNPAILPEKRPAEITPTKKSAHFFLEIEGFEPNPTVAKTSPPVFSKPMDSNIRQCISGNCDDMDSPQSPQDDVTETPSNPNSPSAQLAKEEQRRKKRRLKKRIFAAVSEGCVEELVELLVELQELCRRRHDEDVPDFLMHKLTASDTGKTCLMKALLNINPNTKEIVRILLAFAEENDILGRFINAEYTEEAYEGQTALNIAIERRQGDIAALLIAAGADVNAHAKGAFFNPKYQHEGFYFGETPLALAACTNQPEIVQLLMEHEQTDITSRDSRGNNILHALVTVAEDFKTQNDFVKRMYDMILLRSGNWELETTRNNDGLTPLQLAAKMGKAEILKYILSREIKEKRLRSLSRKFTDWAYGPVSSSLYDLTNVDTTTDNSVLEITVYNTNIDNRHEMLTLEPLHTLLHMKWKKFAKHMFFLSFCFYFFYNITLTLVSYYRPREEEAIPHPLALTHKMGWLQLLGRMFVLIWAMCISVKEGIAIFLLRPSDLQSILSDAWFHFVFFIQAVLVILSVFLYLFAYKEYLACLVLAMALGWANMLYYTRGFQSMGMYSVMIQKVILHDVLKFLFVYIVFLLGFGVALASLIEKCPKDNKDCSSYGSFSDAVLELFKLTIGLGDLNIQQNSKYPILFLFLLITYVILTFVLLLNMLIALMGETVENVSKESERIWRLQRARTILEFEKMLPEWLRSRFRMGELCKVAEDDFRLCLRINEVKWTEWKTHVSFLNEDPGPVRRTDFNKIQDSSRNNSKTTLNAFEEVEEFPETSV
The experiment can be described thus: Calcium imaging (Fluo-4/AM) of TRPV3-expressing HEK293T cells. It is filed as cell-based. The protocol:
(§1) HEK293T cells are cultured using Dulbecco's modified Eagle's medium containing 10% fetal bovine serum and 1% penicillin-streptomycin in a cell incubator with 5% CO2 at 37 °C. Plasmids of murine TRPV1, TRPV4, TRPM8, and human TRPV3, TRPA1 are labeled with YFP or GFP as indicators for subsequent electrophysiological recordings. Complementary DNA constructs of ion channels were transiently transfected with Lipofectamine 3000 (Invitrogen). And 12 to 18 h after transient transfection, electrophysiological recordings were performed.
Calcium imaging assays were performed as described previously ([37]). Transiently transfected HEK293 cells seeded on 25 mm coverslips were washed twice with an extracellular solution containing 140 mM NaCl, 5 mM KCl, 2 mM MgCl2, 2 mM CaCl2, 10 mM glucose, and 10 mM Hepes (pH 7.4), followed by incubation in 2 ml of extracellular solution supplemented with 2 μM Fluo-4/AM as a Molecular Probes at room temperature for 60 min. Fluorescence images of HEK293T cells were acquired with a Nikon Eclipse Ti2 microscope with an optiMOS charge-coupled device camera controlled by the Ocular Software ([…]; https://www.photometrics.com/products/ocular).

The next experiment deals with T2, mTRPM8 (Mus musculus, UniProt Q8R4D5).
T2 construct: YFP or GFP; expressed in transfected cells; host or cells: HEK293T
T2 sequence (Q8R4D5 whole entry): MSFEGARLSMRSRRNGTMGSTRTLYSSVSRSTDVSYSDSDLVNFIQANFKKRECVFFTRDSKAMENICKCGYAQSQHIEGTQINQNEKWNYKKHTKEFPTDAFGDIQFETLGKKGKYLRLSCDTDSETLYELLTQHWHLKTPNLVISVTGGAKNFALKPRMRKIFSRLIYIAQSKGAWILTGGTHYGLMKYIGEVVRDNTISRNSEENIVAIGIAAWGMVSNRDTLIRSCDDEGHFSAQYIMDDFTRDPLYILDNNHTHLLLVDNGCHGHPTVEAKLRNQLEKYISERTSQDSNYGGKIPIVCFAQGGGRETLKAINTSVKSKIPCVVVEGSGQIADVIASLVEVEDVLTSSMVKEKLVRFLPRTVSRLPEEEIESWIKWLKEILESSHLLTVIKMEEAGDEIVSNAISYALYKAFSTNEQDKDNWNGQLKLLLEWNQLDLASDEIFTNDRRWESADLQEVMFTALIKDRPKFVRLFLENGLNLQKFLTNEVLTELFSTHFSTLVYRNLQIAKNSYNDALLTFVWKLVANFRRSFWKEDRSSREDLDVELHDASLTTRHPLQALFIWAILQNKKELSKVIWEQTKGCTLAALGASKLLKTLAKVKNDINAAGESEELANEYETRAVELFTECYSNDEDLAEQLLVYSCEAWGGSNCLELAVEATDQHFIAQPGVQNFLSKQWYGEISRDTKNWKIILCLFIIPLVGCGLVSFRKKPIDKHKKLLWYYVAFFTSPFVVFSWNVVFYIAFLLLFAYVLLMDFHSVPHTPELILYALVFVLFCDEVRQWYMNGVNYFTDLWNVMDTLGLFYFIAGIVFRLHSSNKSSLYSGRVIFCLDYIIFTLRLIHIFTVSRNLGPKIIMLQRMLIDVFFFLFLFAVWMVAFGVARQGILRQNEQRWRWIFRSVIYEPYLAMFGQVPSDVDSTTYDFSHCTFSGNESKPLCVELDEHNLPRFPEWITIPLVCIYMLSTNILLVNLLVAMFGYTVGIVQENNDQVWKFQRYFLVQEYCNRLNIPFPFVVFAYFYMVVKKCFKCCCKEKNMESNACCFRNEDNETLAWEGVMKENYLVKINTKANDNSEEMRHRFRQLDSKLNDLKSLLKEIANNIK
The experiment can be described thus: Whole-cell current recordings, mTRPM8. It counts as cell-based, murine. On the procedure:
To elucidate the specificity of HCQ inhibition on TRPV3, we conducted whole-cell current recordings on other known pruritus-related TRP channels, such as hTRPA1, mTRPV1, mTRPV4, and mTRPM8 (Fig. 3, A and F). […] Because of the relatively larger inhibition of HCQ on mTRPM8 current, we tested the concentration dependence of HCQ on mTRPM8 channels.
as §1
Patch-clamp recordings were carried out with a HEKA EPC10 amplifier controlled by PatchMaster software (HEKA; https://www.heka.com/products/products_main.html#soft_pm) ([36]). Patch pipettes were prepared from borosilicate glass and fire-polished to the resistance of 3 to 8 MΩ by P-97 puller for whole-cell recordings. For single-channel recordings, patch pipettes were fire-polished to a higher resistance of 6 to 10 MΩ. Both bath solution and pipette solution contained 130 mM NaCl, 10 mM glucose, 0.2 mM EDTA, and 3 mM Hepes and were adjusted to pH 7.2 to 7.4 with NaOH. Whole-cell recordings and single-channel recordings were performed at ± 80 mV. The current was sampled at 10 kHz and filtered at 2.9 kHz. All recordings were performed at room temperature (25 °C). A gravity-driven system (RSC-200, Bio-Logic) with freely rotated perfusion tubes was used for the perfusion of ligands. Bath and ligand solutions were delivered through separate tubes to minimize the mixing of solutions. […]
All data from whole-cell recordings were analyzed in Igor Pro (WaveMetrics). IC50 values were determined by fitting the Hill equation to concentration-response relationships. […]

`CCN(CCO)CCCC(C)Nc1ccnc2cc(Cl)ccc12` (centres unmarked) [HCQ, hydroxychloroquine]: the “calcium influx, area under the curve (AUC)” value came to 8.65 ± 0.83 on TRPV3 (100 μM HCQ mixed with 1 mM 2-APB) and 0.28 ± 0.05 at TRPV3 (300 μM HCQ mixed with 1 mM 2-APB). The “reduction of mTRPM8 current” value on mTRPM8 (100 μM HCQ, current activated by 1 mM menthol) is given as 27.94% ± 10.91%. Besides, the IC50 on mTRPM8 (concentration dependence, whole-cell, read-out: IC50 on mTRPM8 channels) is 263 ± 88.6 µM. Besides, the “IC50 of mTRPM8 relative to IC50 of hTRPV3” value at mTRPM8 (selectivity ratio) is “more than 5 fold”.
